Measured values from patent US7018796B2, “Preincubation assay methods” (Shionogi & Co., Ltd., priority 2000, dated 2006).
“Also recorded” adds a separate entry of the source.

Molecular target: T1, HCV RNA-dependent RNA polymerase (Hepatitis C virus genotype 1a, UniProt P27958)
T1 construct: HCV RNA-dependent RNA polymerase is encoded in the NS5B (nonstructural protein 5B) region of HCV; made in house; host or cells: insect cells or E. coli
Experiment: Prior assay method without pre-incubation, 3H-UTP (Reference 1)
Assay type: biochemical
Details: no pre-incubation
Text: A HCV RNA-dependent RNA polymerase, template RNA, primer RNA, substrate RNA, Mg ion (Mg^2+) and a test substance are mixed at the same time to start an enzyme reaction and measure an enzyme activity. It can be known whether a test substance activates or inhibits an activity of a HCV RNA-dependent RNA polymerase by comparing the above value of an enzyme activity with that measured in the absence of a test substance. IC50 value can be used, which is a concentration of a test substance able to inhibit 50% of an enzyme activity. For example, one of prior methods can be carried out in accordance with the later described Reference 1.
A cDNA encoding HCV RNA-dependent RNA polymerase was made by use of HCV positive human plasma and HCV RNA-dependent RNA polymerase was expressed using the insect cells or the E. coli. HCV RNA-dependent RNA polymerase in the cell extract was purified by use of an anion exchange chromatography, a heparin affinity chromatography, a polyU affinity chromatography, a cation exchange chromatography and gel filtration chromatography. The purification was performed at 4° C. and Tris buffer (pH 7.5) containing ethylenediaminetetraacetic acid (1 mM), dithiothreitol (10 mM) and glycerol (20%) was used. The enzyme purified was stored at 4° C. until use for the assays.
The prior assay method using HCV RNA-dependent RNA polymerase • 1) The buffer I ^1) (10.5 μl) containing Tris-HCl (100 mM, pH 7.5), MgCl2 (25 mM), dithiothreitol (5 mM), KCl (125 mM) and ethylenediaminetetraacetic acid (5 mM) was transferred to a polypropylene tube and then poly(A)^2) solution (100 μg/ml, 10.5 μl), oligo(U)12 ^3) solution (1 μg/ml, 10.5 μl) and water (8 μl) were added into the tube. After mixing, the tube was cooled on ice. • 2) Next, HCV RNA-dependent RNA polymerase (10.5 μl) cooled on ice was added into the tube and mixed. • 3) The mixture cooled (50 μl) was added to a test compound (5.26 μl/well) dissolved with dimethyl sulfoxide or water in a well of a 96-wells microtiter plate. • 4) Additionally, the buffer II (10.6 μl) containing Tris-HCl (100 mM, pH 7.5), MgCl2 (25 mM), dithiothreitol (5 mM), KCl (125 mM), ethylenediaminetetraacetic acid (5 mM) and UTP ^4) (2.1 μM, 1 μCi ^3H-UTP), was mixed with water (39.4 μl). The mixture (50 μl) was added into the well and mix, and then the enzyme reaction was performed at 25° C. for 30 min. • 5) After enzyme reaction for 30 min, the enzyme reaction was stopped by adding disodium ethylenediaminetetraacetic acid (50 mM, 50 μl). • 6) By use of the cell-harvester, all volume of the enzyme reaction sample which was described in 5) was transferred onto a DEAE-filtermat and washed twice for 10 see with sodium phosphate buffer (0.25 M, pH 7.0) and once for 10 sec with de-ionized water. • 7) The DEAE-filtermat was dried at 95° C. for 15 min and transferred into a sample bag with liquid scintillater (10 ml), and then a sample bag was sealed. • 8) The radio activity was measured by a scintillation counter. • 9) The inhibitory rate was calculated from the radioactivity measured (ccpm) as follows. [formula]

[1] = prior method, I-1 0.5 μg/ml, 3′-dUTP 0.7 μM, A 100 μg/ml, B 50 μg/ml, C 25 μg/ml

T1 sequence (P27958 2421-3011): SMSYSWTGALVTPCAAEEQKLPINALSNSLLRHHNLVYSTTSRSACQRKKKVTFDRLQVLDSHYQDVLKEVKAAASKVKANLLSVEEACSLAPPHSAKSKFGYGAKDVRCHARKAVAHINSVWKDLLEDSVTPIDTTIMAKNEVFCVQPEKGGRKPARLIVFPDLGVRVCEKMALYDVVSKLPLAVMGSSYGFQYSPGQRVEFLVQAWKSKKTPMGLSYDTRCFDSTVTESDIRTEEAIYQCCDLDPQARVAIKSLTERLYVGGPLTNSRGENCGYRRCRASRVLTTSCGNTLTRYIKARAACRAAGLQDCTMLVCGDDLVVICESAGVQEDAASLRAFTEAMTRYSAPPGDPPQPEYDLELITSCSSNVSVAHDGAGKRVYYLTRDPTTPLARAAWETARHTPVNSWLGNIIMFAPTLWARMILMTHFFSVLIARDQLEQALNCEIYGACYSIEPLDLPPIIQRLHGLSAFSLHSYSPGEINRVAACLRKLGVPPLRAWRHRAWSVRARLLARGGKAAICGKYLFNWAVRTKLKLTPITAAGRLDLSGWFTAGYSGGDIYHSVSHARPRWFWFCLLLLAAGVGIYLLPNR

Row | SMILES | Inhibitory rate (Table 3) [1] [%] | Judgement in the prior method (positive / negative) | inhibition at 0.5 µg/mL (prior method, I-1 0.5 μg/ml, 3′-dUTP 0.7 μM, A 100 μg/ml, B 50 μg/ml, C 25 μg/ml, read-out: Inhibitory rate (Table 3)) [%]
1 | O=c1ccn([C@@H]2O[C@H](COP(=O)(O)OP(=O)(O)OP(=O)(O)O)C[C@H]2O)c(=O)[nH]1 [3′-dUTP, 3′-deoxyuridine triphosphate] | 68 |  | 
2 | Cc1oc(-c2ccccc2)nc1CCOc1ccc(C=C2C(=O)NC(=O)NC2=O)cc1 [Compound A] | 50 | positive data | 
3 | O=C1NC(=O)C(=Cc2ccc(OCCc3cccc4ccccc34)cc2)C(=O)N1 [Compound B] | 63 | positive data | 
4 | CCCCC1=N/C(=C\c2ccccc2OCC(=O)O)C(=O)N1Cc1ccc(-c2ccccc2-c2nnn[nH]2)cc1 [Compound C] | 67 | positive data; also recorded: positive result | 
5 | O=C(O)/C(O)=C/C(=O)c1cccc(O)c1 [Compound I-1] |  |  | 62
